Patent US9616064B2, “Rho kinase inhibitors and methods of use” (H. LEE MOFFITT CANCER CENTER AND RESEARCH INSTITUTE, INC., priority 2011, dated 2017)
Where a name gives a salt, the structure may show the parent alone. Read-outs that look alike come from different tables or passages of the source.

Columns and labels:
[1] = molecular target: ROCK1 (Homo sapiens (Human), UniProt Q13464); experiment: Z-lyte FRET assay to measure kinase inhibition, ROCK1; type: biochemical; conditions: for inhibition at 50 µM: read-out: ROCK1 % inhibition @ 50 μM, 50 μM compound; for IC50: read-out: ROCK1 IC50
[2] = molecular target: ROCK2 (Homo sapiens (Human), UniProt O75116); experiment: Z-lyte FRET assay to measure kinase inhibition, ROCK2; type: biochemical
Sequence of ROCK2 (O75116 whole entry, species assumed): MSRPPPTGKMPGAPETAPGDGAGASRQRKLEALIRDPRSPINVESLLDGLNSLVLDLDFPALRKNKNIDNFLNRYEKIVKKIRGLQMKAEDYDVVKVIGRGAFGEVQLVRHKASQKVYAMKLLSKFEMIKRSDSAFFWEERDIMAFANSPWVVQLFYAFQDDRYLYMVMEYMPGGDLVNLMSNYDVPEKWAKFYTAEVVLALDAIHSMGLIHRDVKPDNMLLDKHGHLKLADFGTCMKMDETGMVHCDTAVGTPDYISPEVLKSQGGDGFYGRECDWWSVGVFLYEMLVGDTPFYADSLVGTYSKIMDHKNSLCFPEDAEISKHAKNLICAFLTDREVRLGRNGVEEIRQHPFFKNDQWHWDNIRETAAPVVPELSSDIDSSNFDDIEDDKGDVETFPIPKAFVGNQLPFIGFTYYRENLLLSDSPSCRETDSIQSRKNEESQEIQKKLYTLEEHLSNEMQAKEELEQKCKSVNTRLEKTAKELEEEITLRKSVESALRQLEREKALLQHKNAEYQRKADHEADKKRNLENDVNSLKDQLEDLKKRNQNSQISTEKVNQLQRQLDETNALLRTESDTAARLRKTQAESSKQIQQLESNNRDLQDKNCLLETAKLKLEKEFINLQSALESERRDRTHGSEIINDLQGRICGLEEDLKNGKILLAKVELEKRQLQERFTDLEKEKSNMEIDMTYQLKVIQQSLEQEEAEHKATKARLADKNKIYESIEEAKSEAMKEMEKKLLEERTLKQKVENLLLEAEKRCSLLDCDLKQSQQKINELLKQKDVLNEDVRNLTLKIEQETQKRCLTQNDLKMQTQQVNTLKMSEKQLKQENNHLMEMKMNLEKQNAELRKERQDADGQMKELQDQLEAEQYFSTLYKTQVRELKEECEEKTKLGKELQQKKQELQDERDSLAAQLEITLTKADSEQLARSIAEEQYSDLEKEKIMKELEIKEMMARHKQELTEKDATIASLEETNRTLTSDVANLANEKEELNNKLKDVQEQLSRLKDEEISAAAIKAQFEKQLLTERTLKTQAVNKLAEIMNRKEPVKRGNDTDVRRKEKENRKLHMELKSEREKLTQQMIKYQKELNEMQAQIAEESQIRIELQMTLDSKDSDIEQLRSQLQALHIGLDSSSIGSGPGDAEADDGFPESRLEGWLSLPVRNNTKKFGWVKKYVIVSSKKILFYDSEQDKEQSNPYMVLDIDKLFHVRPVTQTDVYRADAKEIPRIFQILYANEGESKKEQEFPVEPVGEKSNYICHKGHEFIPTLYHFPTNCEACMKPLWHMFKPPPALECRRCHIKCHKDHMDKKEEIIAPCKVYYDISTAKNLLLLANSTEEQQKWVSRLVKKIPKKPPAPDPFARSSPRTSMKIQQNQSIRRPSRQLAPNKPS

Sequence of ROCK1 (Q13464 whole entry): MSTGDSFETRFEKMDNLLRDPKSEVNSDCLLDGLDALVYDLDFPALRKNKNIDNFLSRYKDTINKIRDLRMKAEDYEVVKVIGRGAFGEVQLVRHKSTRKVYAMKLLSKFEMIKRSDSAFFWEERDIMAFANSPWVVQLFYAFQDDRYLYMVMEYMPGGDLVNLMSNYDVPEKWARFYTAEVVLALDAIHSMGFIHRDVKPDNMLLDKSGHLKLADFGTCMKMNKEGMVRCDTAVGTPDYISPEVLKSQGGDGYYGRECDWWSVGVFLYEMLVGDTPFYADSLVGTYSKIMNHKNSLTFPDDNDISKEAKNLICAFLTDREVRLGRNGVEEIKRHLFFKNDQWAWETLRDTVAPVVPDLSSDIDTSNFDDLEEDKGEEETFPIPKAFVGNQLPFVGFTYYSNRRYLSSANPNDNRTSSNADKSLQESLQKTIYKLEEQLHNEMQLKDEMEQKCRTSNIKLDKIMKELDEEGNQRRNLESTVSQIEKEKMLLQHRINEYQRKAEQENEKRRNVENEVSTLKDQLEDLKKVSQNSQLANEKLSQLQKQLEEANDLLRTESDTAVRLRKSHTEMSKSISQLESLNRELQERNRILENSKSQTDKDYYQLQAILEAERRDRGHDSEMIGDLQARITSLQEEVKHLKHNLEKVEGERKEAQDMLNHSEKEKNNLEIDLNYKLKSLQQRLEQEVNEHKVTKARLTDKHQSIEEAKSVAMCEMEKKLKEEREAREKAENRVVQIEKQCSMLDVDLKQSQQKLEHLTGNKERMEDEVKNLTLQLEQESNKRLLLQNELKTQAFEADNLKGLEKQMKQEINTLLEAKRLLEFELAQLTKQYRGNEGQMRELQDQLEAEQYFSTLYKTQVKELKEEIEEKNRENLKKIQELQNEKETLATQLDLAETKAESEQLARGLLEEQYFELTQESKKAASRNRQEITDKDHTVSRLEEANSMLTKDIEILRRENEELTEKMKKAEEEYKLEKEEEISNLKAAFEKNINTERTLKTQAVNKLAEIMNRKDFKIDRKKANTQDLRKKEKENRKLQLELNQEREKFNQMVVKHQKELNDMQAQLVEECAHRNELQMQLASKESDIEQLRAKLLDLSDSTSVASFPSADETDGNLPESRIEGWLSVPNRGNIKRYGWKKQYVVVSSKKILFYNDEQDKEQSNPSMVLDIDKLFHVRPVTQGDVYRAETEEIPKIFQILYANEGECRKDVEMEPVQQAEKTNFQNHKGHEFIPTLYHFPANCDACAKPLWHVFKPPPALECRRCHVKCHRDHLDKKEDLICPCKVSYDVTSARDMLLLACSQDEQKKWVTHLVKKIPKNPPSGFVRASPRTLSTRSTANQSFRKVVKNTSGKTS

Row | SMILES | inhibition at 50 µM [1] | IC50 [1] | IC50 [2] | IC50 ([1]; hydrochloride) | IC50 ([2]; hydrochloride) | ROCK1 % inhibition @ 50 μM ([1]; 50 μM compound)
1 | Nc1nccc(-n2ccc3c(OCc4ccc(Cl)cc4)cccc32)n1 | 71 ± 2% | 1900 ± 420 nM | 460 ± 80 nM |  |  | 
2 | Nc1nccc(-n2ccc3cc(C(=O)NCCc4ccccc4)ccc32)n1 | 96 ± 1% | 2800 ± 300 nM | 700 ± 300 nM |  |  | 
3 | Nc1nccc(-n2ccc3cc(NC(=O)CCc4ccccc4)ccc32)n1 | 60 ± 2% | 54100 ± 1100 nM | 8400 ± 2000 nM |  |  | 
4 | Nc1nccc(-n2ccc3cc(Br)ccc32)n1 | 89 ± 1% | 2100 ± 300 nM | 1700 ± 300 nM |  |  | 
5 | C[C@H](NC(=O)c1cccc2c1ccn2-c1ccnc(N)n1)c1ccccc1 | 102.2 ± 0.2% | 3430 ± 440 nM | 1200 ± 320 nM |  |  | 
6 | Nc1nccc(Nc2cccc(S(N)(=O)=O)c2)n1 | 90 ± 2% | 6100 ± 600 nM | 6100 ± 1100 nM |  |  | 
7 | COc1ccc2c(ccn2-c2ccnc(N)n2)c1 | 96 ± 3% | 400 ± 100 nM | 250 ± 130 nM |  |  | 
8 | Nc1nccc(Nc2ccc(S(N)(=O)=O)cc2)n1 [1aa, 4-(2-Aminopyrimidin-4-ylamino)benzenesulfonamide hydrochloride] |  |  |  | 38000 nM | 25000 nM | 
9 | COc1cccc(CNC(=O)c2cccc3c2CCN3c2ccnc(N)n2)c1 | 92.8 ± 3.64% | 1620 ± 860 nM | 250 ± 20 nM |  |  | 
10 | Nc1nccc(-n2ccc3ccc(F)cc32)n1 | 86 ± 5% | 4900 ± 500 nM | 1700 ± 100 nM |  |  | 
11 | COc1ccccc1CNC(=O)c1cccc2c1ccn2-c1ccnc(N)n1 | 69 ± 3% | 6000 ± 2000 nM | 1800 ± 680 nM |  |  | 
12 | Nc1nccc(-n2ccc3c(C(=O)NCCc4ccccc4)cccc32)n1 | 91 ± 1% | 2000 ± 500 nM | 500 ± 100 nM |  |  | 
13 | Nc1nccc(-n2ccc3cc(C(=O)NCc4ccccc4)ccc32)n1 | 96 ± 1% | 2400 ± 1600 nM | 300 ± 100 nM |  |  | 
14 | Nc1nccc(-n2ccc3ccccc32)n1 | 88 ± 4% | 4800 ± 300 nM | 4000 ± 300 nM |  |  | 
15 | Nc1nccc(N2CCc3ccc(F)cc32)n1 | 89 ± 4% | 3700 ± 400 nM | 1340 ± 90 nM |  |  | 
16 | COc1cccc(CNC(=O)c2cccc3c2ccn3-c2ccnc(N)n2)c1 | 93 ± 7% | 150 ± 20 nM | 40 ± 30 nM |  |  | 
17 | Nc1nccc(-n2ccc3c(C(=O)NCc4cccc(F)c4)cccc32)n1 | 72 ± 10% | 2700 ± 1780 nM | 260 ± 90 nM |  |  | 
18 | Nc1nccc(-n2ccc3cc(OCc4ccccc4)ccc32)n1 | 76 ± 2% | 39000 ± 6900 nM | 16300 ± 5500 nM |  |  | 
19 | CC(NC(=O)c1cccc2c1ccn2-c1ccnc(N)n1)c1ccccc1 (centres unmarked) [drawing 177] | 85 ± 6% | 1700 ± 500 nM | 210 ± 150 nM |  |  | 
20 | Nc1nccc(N2CCc3cc(Br)ccc32)n1 | 83 ± 5% | 1700 ± 300 nM | 1200 ± 100 nM |  |  | 
21 | Nc1nccc(Nc2cccc([N+](=O)[O-])c2)n1 | 91 ± 2% | 4860 ± 600 nM | 7820 ± 2300 nM |  |  | 
22 | CC1Cc2cc(F)ccc2N1c1ccnc(N)n1 (centres unmarked) | 97 ± 4% | 400 ± 100 nM | 200 ± 10 nM |  |  | 
23 | Nc1nccc(N2CCc3cc(Cl)ccc32)n1 | 73 ± 3% | 1500 ± 200 nM | 1200 ± 200 nM |  |  | 
24 | Nc1nccc(-n2ccc3c(C(=O)NCc4ccccc4F)cccc32)n1 | 88.7 ± 5.96% | 5670 ± 320 nM | 920 ± 480 nM |  |  | 
25 | CC1Cc2ccccc2N1c1ccnc(N)n1 (centres unmarked) | 97 ± 1% | 1700 ± 200 nM | 1900 ± 400 nM |  |  | 

Row | SMILES | inhibition at 50 µM [1] | IC50 [1] | IC50 [2] | IC50 ([1]; hydrochloride) | IC50 ([2]; hydrochloride) | ROCK1 % inhibition @ 50 μM ([1]; 50 μM compound)
26 | NC(=O)c1ccc(Nc2ccnc(N)n2)cc1 | 82 ± 2% | 13300 ± 1700 nM | 11500 ± 1200 nM |  |  | 
27 | Nc1nccc(N2CCc3cc(F)ccc32)n1 | 89 ± 7% | 1200 ± 200 nM | 700 ± 100 nM |  |  | 
28 | COc1ccc2c(c1)c(CCNC(C)=O)cn2-c1ccnc(N)n1 | 89 ± 1% | 4900 ± 800 nM | 5300 ± 1200 nM |  |  | 
29 | Nc1nccc(Nc2ccc(S(N)(=O)=O)cc2)n1 [drawing 83] | 60 ± 3% | 38500 ± 3400 nM | 25500 ± 5800 nM |  |  | 
30 | NC(=O)c1cccc(Nc2ccnc(N)n2)c1 | 54 ± 4% | 38900 ± 900 nM | 33300 ± 2800 nM |  |  | 
31 | CC1Cc2cc(Cl)ccc2N1c1ccnc(N)n1 (centres unmarked) | 87 ± 10% | 1200 ± 100 nM | 500 ± 30 nM |  |  | 
32 | CS(=O)(=O)c1cccc(Nc2ccnc(N)n2)c1 | 90 ± 1% | 6700 ± 1300 nM | 7300 ± 2000 nM |  |  | 
33 | COC(=O)c1ccc(Nc2ccnc(N)n2)cc1 | 77 ± 3% | 20500 ± 8000 nM | 13900 ± 1700 nM |  |  | 
34 | Nc1nccc(Nc2ccc(OC(F)F)cc2)n1 | 64 ± 7% | 30000 ± 3200 nM | 23400 ± 5500 nM |  |  | 
35 | Nc1nccc(N2CCc3c(OCc4ccccc4)cccc32)n1 | 90 ± 1% | 480 ± 99 nM | 250 ± 70 nM |  |  | 
36 | CC(NC(=O)c1cccc2c1ccn2-c1ccnc(N)n1)c1ccccc1 (centres unmarked) [drawing 178] |  | 120 ± 20 nM | 60 ± 20 nM |  |  | 105 ± 1%
37 | Nc1nccc(-n2ccc3c(C(=O)NCc4ccccc4)cccc32)n1 | 92 ± 1% | 1000 ± 500 nM | 200 ± 100 nM |  |  | 
38 | Nc1nccc(-n2ccc3c(OCc4cccc(Cl)c4)cccc32)n1 | 44 ± 9% | 34600 ± 8200 nM | 32700 ± 8100 nM |  |  | 
39 | Nc1nccc(N2CCc3ccccc32)n1 | 85 ± 4% | 6600 ± 500 nM | 3400 ± 300 nM |  |  | 
40 | CSc1ccc(Nc2ccnc(N)n2)cc1 | 76 ± 2% | 21000 ± 8800 nM | 17100 ± 2800 nM |  |  | 
41 | Nc1nccc(N2CCc3cc(S(N)(=O)=O)ccc32)n1 | 73 ± 4% | 25800 ± 2600 nM | 10300 ± 900 nM |  |  | 
42 | Nc1nccc(Nc2ccccc2)n1 | 47 ± 6% | 55300 ± 13400 nM | > 50000 nM |  |  | 
43 | CC1Cc2cc([N+](=O)[O-])ccc2N1c1ccnc(N)n1 (centres unmarked) | 98 ± 2% | 500 ± 100 nM | 400 ± 100 nM |  |  | 
44 | Nc1nccc(N2CCCc3ccccc32)n1 | 69 ± 1% | 19800 ± 4300 nM | 35300 ± 5100 nM |  |  | 
45 | Nc1nccc(N2CCc3ccc([N+](=O)[O-])cc32)n1 | 51 ± 1% | 2200 ± 300 nM | 1800 ± 300 nM |  |  | 
46 | Nc1nccc(-n2ccc3c(C(=O)NCc4cccc(Cl)c4)cccc32)n1 | 86 ± 4% | 6800 ± 3000 nM | 720 ± 130 nM |  |  | 
47 | Nc1nccc(-n2ccc3c(OCc4ccccc4Cl)cccc32)n1 | 62 ± 6% | 29100 ± 8200 nM | 19000 ± 5900 nM |  |  | 
48 | COc1ccc2ccn(-c3ccnc(N)n3)c2c1 | 88 ± 2% | 4900 ± 500 nM | 4900 ± 1000 nM |  |  | 
49 | Nc1nccc(-n2ccc3ccc(Cl)cc32)n1 | 88 ± 0.3% | 1200 ± 200 nM | 1000 ± 300 nM |  |  | 
50 | Nc1nccc(Nc2ccc([N+](=O)[O-])cc2)n1 | 89 ± 2% | 3900 ± 300 nM | 3700 ± 800 nM |  |  | 
